Results as given in patent publication US8975280B2, “Deoxynojirimycin and D-arabinitol analogs and methods of using” (The Chancellor, Masters and Scholars of The University of …, priority 2006, dated 2015).

Target: T1, α-glucosidase I (Rattus norvegicus, UniProt O88941)
T1 construct: Purified α-glucosidase I and II were purified from rat liver by known methods; from tissue; host or cells: rat liver
T1 sequence (O88941 1-834): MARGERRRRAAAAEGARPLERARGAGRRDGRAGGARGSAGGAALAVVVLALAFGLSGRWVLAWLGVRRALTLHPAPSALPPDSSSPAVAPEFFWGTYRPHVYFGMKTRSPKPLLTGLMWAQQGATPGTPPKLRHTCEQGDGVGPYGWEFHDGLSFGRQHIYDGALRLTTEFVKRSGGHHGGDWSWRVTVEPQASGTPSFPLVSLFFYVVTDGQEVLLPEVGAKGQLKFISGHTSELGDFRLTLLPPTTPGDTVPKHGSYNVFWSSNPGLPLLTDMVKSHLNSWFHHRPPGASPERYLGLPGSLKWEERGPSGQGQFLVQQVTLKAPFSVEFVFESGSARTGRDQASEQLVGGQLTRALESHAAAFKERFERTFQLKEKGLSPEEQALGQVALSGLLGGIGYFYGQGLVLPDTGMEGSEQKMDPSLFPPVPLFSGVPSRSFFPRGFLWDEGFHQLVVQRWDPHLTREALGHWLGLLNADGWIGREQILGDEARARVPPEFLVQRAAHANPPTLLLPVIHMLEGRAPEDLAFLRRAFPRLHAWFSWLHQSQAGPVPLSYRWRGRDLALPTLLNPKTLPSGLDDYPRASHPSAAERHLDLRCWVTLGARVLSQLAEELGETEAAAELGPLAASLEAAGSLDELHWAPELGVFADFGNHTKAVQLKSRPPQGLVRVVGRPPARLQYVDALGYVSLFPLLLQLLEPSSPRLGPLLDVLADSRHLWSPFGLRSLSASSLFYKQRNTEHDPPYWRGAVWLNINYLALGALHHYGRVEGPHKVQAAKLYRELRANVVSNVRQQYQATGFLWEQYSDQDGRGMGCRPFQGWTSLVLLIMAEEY
Assay: In vitro inhibition of purified α-glucosidase I, 2-AA-labeled FOS substrates, HPLC
Format: biochemical
Procedure: All chromatography was performed at 30° C. The first solvent, solvent A, was acetonitrile and the second solvent, solvent B, was Milli-Q water. […] Samples (<50 μl) were injected in Milli-Q water/acetonitrile (3/7, v/v). All chromatography was controlled, including data collection and processing, using Waters Empower software. Glucose units were determined, following comparison with a 2-AA-labeled glucose oligomer ladder (derived from a partial hydrolysate of dextran) external standard using Peak Time software (developed in-house).
Purified α-glucosidase I and II were purified from rat liver by known methods. […] 2-AA-labeled FOS were isolated and purified as substrates for either α-glucosidase I or II. Fluorescently-labeled substrates Glc1Man5GlcNAc1 (G1M5N), Glc2Man5GlcNAc1 (G2M5N), Glc3Man5GlcNAc1 (G3M5N) and Glc3Man9GlcNAc, (G3M9N2) were added to separate 1.5 ml centrifuge tubes with varying concentrations of imino sugar and dried under vacuum. […] Similarly, α-glucosidase II was incubated for 2 hours with G2M5N and 20 minutes with G1M5N. […] The reactions were stopped by the addition of 30 μl acetonitrile.

[1] = physiologically relevant substrates

[N-]=[N+]=Nc1ccc(NCCCCCCN2C[C@H](O)[C@@H](O)[C@H](O)[C@H]2CO)c([N+](=O)[O-])c1 [NAP-DNJ, N—(N′-{4′azido-2′-nitrophenyl)-6-aminohexyl)-deoxynojirimycin]
more potent in inhibiting glucosidase I than glucosidase II (a) (heptamannose substrates): over 300 times | more potent in inhibiting glucosidase I than glucosidase II (b) (heptamannose substrates): more than 500 times | inhibition of α-glucosidase I improved in comparison to NB-DNJ (pentamannose substrate): 40 fold | inhibition better for α-glucosidase I than α-glucosidase II (a) (pentamannose substrates): 20 times | inhibition better for α-glucosidase I than α-glucosidase II (b) (pentamannose substrates): 50 times | better at inhibiting glucosidase I than glucosidase II (a) and (b) activity [1]: 300-500 times | better than NB-DNJ in inhibiting all triglucosylated structures [1]: 25-50 times | IC50 (α-Glucosidase I Glc3Man5GlcNAc1 IC50, pentamannose substrate Glc3Man5GlcNAc1): 17 ± 1 nM | IC50 (α-Glucosidase I Glc3Man7GlcNAc1 IC50, heptamannose substrate Glc3Man7GlcNAc1): 37 ± 1 nM | IC50 (α-Glucosidase I Glc3Man9GlcNAc1 IC50, nonamannose substrate Glc3Man9GlcNAc1): 22 ± 2 nM
